Results published in patent US20110294722A1, “ANTIMICROBIAL PEPTIDES” (priority 2008, published 2011).
Read-outs that look alike come from different tables or passages of the source. No end group written: not given here.

Legend:
Assay type in all cases: cell-based
[1] = test system: Pseudomonas syringae pv. syringae; settings: Pseudomonas syringae pv. syringae; for MIC (>90% inhibition): 1-2 days at 25° C.; for LC (lethal concentration, 100% inhibition): at least 4 days of incubation
Method: (§1) In-vitro inhibition assays were performed in sterile flat-bottom 96-well plates (Greiner bio-one, Frickenhausen). Antimicrobial peptides were dissolved in 0.01% acetic acid containing 0.2% BSA (500 μg/ml), filter sterilized and stored at −20° C. For inhibition assays dilutions of peptides ranging from 5 to 200 μg/ml were prepared and 10 μl (antibacterial assay) or 20 (antifungal assay) of each concentration was loaded per well.
(§2) Bacteria colonies from overnight agar plate cultures were resuspended into 5 ml LB-medium or HPG-medium (OD600 nm=0.08-0.1) and diluted into LB-medium/HPG-medium (1:100). 90 μl of this suspension containing about 10^5-10^6 CFU/ml of tested bacteria were added to each well resulting in final peptide concentrations of 0, 0.5, 1, 2, 5, 10, and 20 μg/ml. […] The lowest concentration, in which there is no observable growth (>90% inhibition) is referred to as minimal inhibitory concentration (MIC). […] For each peptide concentration two identical inhibition assays were performed.

[2] = test system: Pectobacterium carotovorum; settings: Pectobacterium carotovorum; for LC (lethal concentration, 100% inhibition): at least 4 days of incubation; for MIC (>90% inhibition): 1-2 days at 25° C.
Method: as §1, §2

Pseudomonas corrugata = settings: Pseudomonas corrugata; for MIC (>90% inhibition): 1-2 days at 25° C.; for LC (lethal concentration, 100% inhibition): at least 4 days of incubation
Method: as §1, §2

[3] = test system: Pseudomonas syringae pv. tomato; settings: for LC (lethal concentration, 100% inhibition): at least 4 days of incubation
Method: as §1, §2

Xanthomonas vesicatoria = assay: In-vitro inhibition assay (MIC and LC), Example 3; settings: for MIC (>90% inhibition): 1-2 days at 25° C.; for LC (lethal concentration, 100% inhibition): at least 4 days of incubation
Method: as §1, §2

[4] = test system: Clavibacter michiganensis; assay: In-vitro inhibition assay (MIC and LC), Example 3; settings: for MIC (>90% inhibition): 1-2 days at 25° C.; for LC (lethal concentration, 100% inhibition): at least 4 days of incubation
Method: as §1, §2

[5] = Pseudomonas syringae pv. tomato
[6] = Pseudomonas syringae pv. tomato, 1-2 days at 25° C.

Row | Substance | MIC (>90% inhibition) [1] | LC (lethal concentration, 100% inhibition) [1] | LC (lethal concentration, 100% inhibition) [2] | MIC (>90% inhibition) (Pseudomonas corrugata) | LC (lethal concentration, 100% inhibition) (Pseudomonas corrugata) | MIC (>90% inhibition) [3] | LC (lethal concentration, 100% inhibition) [3, 5] | MIC (>90% inhibition) (Xanthomonas vesicatoria) | LC (lethal concentration, 100% inhibition) (Xanthomonas vesicatoria) | MIC (>90% inhibition) [4] | LC (lethal concentration, 100% inhibition) [4] | MIC (>90% inhibition) [2] | MIC (>90% inhibition) [3, 6]
1 | RKKRLKLLKRLL-NH2 [SP1-1] | 0.1/0.1 μg/ml | 0.1/0.1 μg/ml | >10/>10 μg/ml | < 0.1 µg/mL | 0.25 µg/mL | >10/>10 μg/ml | >10/>10 μg/ml | 0.1 µg/mL | 0.25 µg/mL | 2.5/2.5 μg/ml | 2.5/2.5 μg/ml |  | 
2 | RKKRKKLIKRLI-NH2 [Sp1-19] | < 0.1 µg/mL | 5.0 µg/mL | >10/>10 μg/ml | 0.5 µg/mL | 1.0 µg/mL |  | >10/>10 μg/ml | 5.0 µg/mL | > 10 µg/mL | 5.0/5.0 μg/ml | 5.0/5.0 μg/ml | >10/>10 μg/ml | >10/>10 μg/ml
3 | KRKKLLKRLI-NH2 [SP1-16] | 0.1 µg/mL | 2.5 µg/mL | >10/>10 μg/ml | 0.5 µg/mL | 1.0 µg/mL |  | 1.0/1.0 μg/ml | 10/>10 μg/ml | 10/>10 μg/ml | >10/>10 μg/ml | >10/>10 μg/ml | >10/>10 μg/ml | 1.0/1.0 μg/ml
4 | RKKKFKIFKRLF-NH2 [SP1-14] | < 0.1 µg/mL | 0.5 µg/mL | >10/>10 μg/ml | 0.5 µg/mL | 1.0 µg/mL | 1.0 to 5.0 µg/mL |  | 1.0 µg/mL | 2.5 µg/mL | 1.0 µg/mL | 2.5 µg/mL | >10/>10 μg/ml | 
5 | RKKKLKVVKRLV-NH2 [SP1-6] | 5.0 µg/mL | > 10 µg/mL | >10/>10 μg/ml | >10/>10 μg/ml | >10/>10 μg/ml |  | 1.0/1.0 μg/ml | >10/>10 μg/ml | >10/>10 μg/ml | 10/>10 μg/ml | 10/>10 μg/ml | >10/>10 μg/ml | 1.0/1.0 μg/ml
6 | KKKKKKIIKKII-NH2 [SP1-22] | 2.5 µg/mL | 10 µg/mL | >10/>10 μg/ml | >10/>10 μg/ml | >10/>10 μg/ml |  | 5.0 µg/mL | >10/>10 μg/ml | >10/>10 μg/ml | >10/>10 μg/ml | >10/>10 μg/ml | >10/>10 μg/ml | 1.0 µg/mL
7 | RKKKLKFFKRLF-NH2 [Sp1-11] | 1.0 µg/mL | 2.5 µg/mL | >10/>10 μg/ml | 0.25 µg/mL | 1.0 µg/mL |  | >10/>10 μg/ml | 2.5 µg/mL | 10 µg/mL | 2.5 µg/mL | 5.0 µg/mL | >10/>10 μg/ml | >10/>10 μg/ml
